Data reported in ChEMBL document CHEMBL5370544, “Design, synthesis, and biological evaluation of 1-styrenyl isoquinoline derivatives for anti-hepatocellular carcinoma activity and effect on mitochondria” (Eur J Med Chem, 2023).
Active and inactive are the calls of the source.

Assays:
SK-HEP1 [1] = assay: Induction of apoptosis in human SK-HEP1 cells assessed as nuclear membrane breakdown at 1.5 to 13.5 uM incubated for 24 hrs by giemsa staining based micrscopic analysis; assay type: functional, cell-based; conditions: dose 1.5-13.5 µM
Huh-7 [2] = assay: Induction of apoptosis in human Huh-7 cells assessed as increase in Bax expression at 0.9 to 8.1 uM incubated for 48 hrs by Western blotting analysis; assay type: functional, cell-based; conditions: dose 0.9-8.1 µM
SK-HEP1 [3] = assay: Induction of cell cycle arrest in human SK-HEP1 cells assessed as decrease in CDK1 expression incubated for 48 hrs by Western blotting analysis; assay type: functional, cell-based; conditions: dose 1.5-13.5 µM
Huh-7 [4] = assay: Inhibition of cell migration in human Huh-7 cells incubated for 24 hrs by scratch wound healing assay; assay type: functional, cell-based; conditions: dose 0.55-2.2 µM
Huh-7 [5] = assay: Antimigratory activity against human Huh-7 cells assessed as down-regulation of N-cadherin expression at 0.55 to 2.2 uM incubated 24 hrs by Western blotting analysis; assay type: functional, cell-based; conditions: dose 0.55-2.2 µM
[6] = target: Serine/threonine-protein kinase mTOR (Homo sapiens) (UniProt P42345); assay: Inhibition of mTOR signalling pathway in human SK-HEP1 cells assessed as inhibition of mTOR phosphorylation at 1.5 to 13.5 uM measured after 48 hrs by Western blotting analysis; assay type: cell-based; conditions: dose 1.5-13.5 µM

CC(=O)Oc1ccccc1/C=C/c1nccc2ccccc12
active: Activity (SK-HEP1 [1]) | Activity (Huh-7 [2]) | Activity (SK-HEP1 [3]) Dose-Dependent Effect | inhibition (Huh-7 [4]) Dose-Dependent Effect | Activity (Huh-7 [5]) | inhibition [6]
